Results from patent US9126941B2, “Treatment of hyperproliferative disorders with diarylhydantoin compounds” (The Regents of the University of California, priority 2005, dated 2015).
Read-outs that look alike come from different tables or passages of the source.

Experiments:
AR [1] = target: T1, AR (Homo sapiens, UniProt P10275); assay: cell-based; assay type: cell-based; settings: for IC50 (nM) Reporter / Inhibitory activity on AR in reporter system: LNCaP-AR; for IC50 (nM) Reporter: 100 pM R1881, two days, No = did not inhibit AR response reporter; for Inhibitory activity on AR in reporter system: hormone refractory
Experimental: The compounds were subjected to tests using an artificial AR response reporter system in a hormone refractory prostate cancer cell line. […] After two days of incubation, reporter activities were assayed.

AR [2] = target: T1, AR; assay: cell-based; assay type: cell-based; settings: for Rank order, most active to least active, relative PSA level (FIG. 4): 500 nM; for Decrease in PSA level of LNCaP-AR cells, comparison (FIG. 4): at concentrations of 1000 nM
Experimental: It is well established that PSA levels are indicators of AR activities in prostate cancer. […] The LNCaP-AR cells are a line of lymph node carcinoma of prostate cells transduced with a plasmid that makes express androgen receptors. […] After four days incubation, secreted PSA levels were assayed using PSA ELISA kits (American Qualex, San Clemente, Calif.)

AR [3] = target: T1, AR; assay: cell-based; settings: for Agonistic activity on AR, reporter: LN-AR, absence of R1881; for fold induction at 0.1 µM: read-out: Fold induction of AR response reporter, 0.1 μM; for fold induction at 1 µM: read-out: Fold induction of AR response reporter, 1 μM; for fold induction at 10 µM: read-out: Fold induction of AR response reporter, 10 μM
Text: Table 2 lists the agonistic activities of different compounds.

AR [4] = target: T1, AR; assay: cell-based; assay type: cell-based; settings: for Agonistic activity, secreted PSA: AR over expressed LNCaP, absence of R1881; for fold induction at 0.1 µM / fold induction at 1 µM / fold induction at 10 µM: LNCaP; for fold induction at 0.1 µM: read-out: Fold induction of endogenous PSA, 0.1 μM; for fold induction at 1 µM: read-out: Fold induction of endogenous PSA, 1 μM; for fold induction at 10 µM: read-out: Fold induction of endogenous PSA, 10 μM
[5] = Ranking of compounds in tiers for utility in treating prostate cancer; settings: assay not specified
Text: The placement of compounds into tiers was based on available data coupled with analytical judgment. Data considered included in vitro assays (AR response reporter system in LNCaP cell line, PSA level measurement, MTS mitochondrial assay) and in vivo experiments (tumor size measured directly or by emission induced by luciferase reporter gene, pharmacokinetic assays based on blood plasma levels). Not every compound was subjected to each assay. […] Judgment was applied in ranking compounds relative to each other for their utility in treating prostate cancer, in particular when ranking two compounds for which the same experiments were not performed. Characteristics considered in establishing the ranking include AR antagonism activity, lack of AR agonism in hormone refractory cells, prevention of tumor growth, tumor shrinkage, and pharmacokinetic behavior, with a longer residence time in blood being advantageous.

T1 sequence (P10275 whole entry, looked up): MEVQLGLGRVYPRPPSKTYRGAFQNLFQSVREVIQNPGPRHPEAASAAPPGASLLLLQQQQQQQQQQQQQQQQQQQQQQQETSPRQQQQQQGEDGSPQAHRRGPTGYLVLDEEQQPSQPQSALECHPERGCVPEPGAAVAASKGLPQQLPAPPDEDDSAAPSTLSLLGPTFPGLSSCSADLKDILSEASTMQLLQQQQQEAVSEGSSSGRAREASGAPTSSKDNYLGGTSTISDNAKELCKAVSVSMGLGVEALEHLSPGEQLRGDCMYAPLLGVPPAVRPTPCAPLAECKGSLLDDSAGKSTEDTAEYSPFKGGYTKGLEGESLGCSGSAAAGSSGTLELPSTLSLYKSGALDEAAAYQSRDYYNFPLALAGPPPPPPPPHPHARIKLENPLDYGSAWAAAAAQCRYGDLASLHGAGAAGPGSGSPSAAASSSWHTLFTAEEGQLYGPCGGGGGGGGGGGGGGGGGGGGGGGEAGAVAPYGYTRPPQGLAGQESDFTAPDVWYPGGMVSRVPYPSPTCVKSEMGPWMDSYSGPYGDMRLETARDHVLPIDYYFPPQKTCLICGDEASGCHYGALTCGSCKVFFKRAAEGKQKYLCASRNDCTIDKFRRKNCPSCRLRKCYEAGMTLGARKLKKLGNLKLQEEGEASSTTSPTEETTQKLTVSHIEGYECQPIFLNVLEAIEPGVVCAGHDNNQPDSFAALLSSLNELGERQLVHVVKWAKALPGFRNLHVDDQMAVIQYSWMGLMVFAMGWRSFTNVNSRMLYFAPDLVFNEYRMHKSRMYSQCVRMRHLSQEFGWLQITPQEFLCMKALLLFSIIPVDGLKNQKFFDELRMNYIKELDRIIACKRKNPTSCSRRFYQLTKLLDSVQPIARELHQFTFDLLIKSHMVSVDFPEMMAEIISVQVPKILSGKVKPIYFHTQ

Row | Structure (SMILES) | IC50 (nM) Reporter (AR [1]) | IC50 (nM) PSA (AR [2]) | Agonistic activity on AR, reporter (AR [3]) | fold induction at 0.1 µM (AR [3]) | fold induction at 1 µM (AR [3]) | fold induction at 10 µM (AR [3]) | Agonistic activity, secreted PSA (AR [4]) | fold induction at 0.1 µM (AR [4]) | fold induction at 1 µM (AR [4]) | fold induction at 10 µM (AR [4]) | IC50 (AR [1]) [µM] | also measured
1 | CN1C(=S)N(c2ccc(C#N)c(C(F)(F)F)c2)C(=O)C12CCC2 [RD73, 4-(5-methyl-8-oxo-6-thioxo-5,7-diazaspiro[3.4]oct-7-yl)-2-trifluoromethylbenzonitrile, reference compound] | No | No | strongly activated AR | 14.9 | 19.4 | 35.2 | stimulated PSA expression | 6.25 | 17.9 | 25.6 |  | Inhibitory activity on AR in reporter system (AR [1]): no inhibitory activities
2 | N#Cc1ccc(N2C(=O)C3(CCC3)N(c3ccc(N4CCNCC4)cc3)C2=S)cc1C(F)(F)F [RD137, 4-[8-Oxo-5-(4-piperazin-1-yl-phenyl)-6-thioxo-5,7-diazaspiro[3,4]oct-7-yl]-2-trifluoromethylbenzonitrile] |  |  |  |  |  |  |  |  |  |  | 0.718 | Rank order, most active to least active, relative PSA level (FIG. 4) (AR [2]): RD138>RD131>RD37>RD133>RD134>RD137>RD138>RD135>bicalutamide; Decrease in PSA level of LNCaP-AR cells, comparison (FIG. 4) (AR [2]): greater decrease in PSA level than bicalutamide
3 | CN1C(=O)N(c2ccc(C#N)c(C(F)(F)F)c2)C(=O)C12CCCC2 [RD76, 4-(1-methyl-2,4-dioxo-1,3-diaza-spiro[4.4]non-3-yl)-2-trifluoromethylbenzonitrile] | No | No | strongly activated AR | 12 | 19.8 | 39 |  |  |  |  |  | Inhibitory activity on AR in reporter system (AR [1]): no inhibitory activities
4 | N#Cc1ccc(N2C(=O)C3(CCCC3)NC2=S)cc1C(F)(F)F [RD77, 4-(4-oxo-2-thioxo-1,3-diazaspiro[4.4]non-3-yl)-2-trifluoromethylbenzonitrile] | No | No | strongly activated AR | 14.9 | 22.5 | 37.1 |  |  |  |  |  | Inhibitory activity on AR in reporter system (AR [1]): no inhibitory activities
5 | Cc1ccc(N2C(=S)N(c3ccc(C#N)c(I)c3)C(=O)C2(C)C)cc1 [RD100] |  |  |  |  |  |  |  |  |  |  |  | Activity (words, overall) [5]: good activity
6 | Cc1ccc(N2C(=S)N(c3ccc(C#N)c(C(F)(F)F)c3)C(=O)C2(CCl)CCl)cc1 [RD67, 4-(4,4-bischloromethyl-5-oxo-2-thioxo-3-(4-methylphenyl)imidazolidin-1-yl)-2-trifluoromethylbenzonitrile] |  |  |  |  |  |  |  |  |  |  | 0.521 | IC50 (AR [2]): > 0.5 µM
7 | N#Cc1ccc(N2C(=O)C3(CCC3)N(c3ccc(CCC(N)=O)cc3)C2=S)cc1C(F)(F)F [RD133, 3-{4-[7-(4-cyano-3-trifluoromethylphenyl)-8-oxo-6-thioxo-5,7-diaza-spiro[3.4]oct-5-yl]-phenyl}-propionamide] |  |  |  |  |  |  |  |  |  |  | 0.224 | Rank order, most active to least active, relative PSA level (FIG. 4) (AR [2]): RD138>RD131>RD37>RD133>RD134>RD137>RD138>RD135>bicalutamide; Decrease in PSA level of LNCaP-AR cells, comparison (FIG. 4) (AR [2]): greater decrease in PSA level of LNCaP-AR cells than RD135 and RD137
8 | Cc1ccc(N2C(=S)N(c3ccc(C#N)c(C(F)(F)F)c3)C(=NC(=S)Nc3ccc(C#N)c(C(F)(F)F)c3)C23CCC3)cc1 [RD93, 1-(4-Cyano-3-trifluoromethyl-phenyl)-3-[7-(4-cyano-3-trifluoromethyl-phenyl)-6-thioxo-5-p-tolyl-5,7-diaza-spiro[3.4]oct-8-ylidene]-thiourea] |  |  | no agonistic activity | 1.26 | 1.1 | 1.3 | no agonistic activities | 1.44 | 1.3 | 1.05 |  | 
9 | N#Cc1ccc(N2C(=O)C3(CCC3)N(c3ccc(CCCC(N)=O)cc3)C2=S)cc1C(F)(F)F [RD130, 4-{4-[7-(4-Cyano-3-trifluoromethylphenyl)-8-oxo-6-thioxo-5,7-diaza-spiro[3.4]oct-5-yl]-phenyl}-butyramide] |  |  |  |  |  |  |  |  |  |  | 0.112 | PSA level, LN/AR cell line, comparison (AR [2]; for a given dose / concentration): less than the PSA level upon exposure to RD128 and RD129
10 | CN1C(=S)N(c2ccc(C#N)c(C(F)(F)F)c2)C(=O)C12CCCC2 [RD75, 4-(1-methyl-4-oxo-2-thioxo-1,3-diazaspiro[4.4]non-3-yl)-2-trifluoromethylbenzonitrile, reference compound] | No | No | strongly activated AR | 17 | 16.6 | 33.8 | stimulated PSA expression | 8.13 | 18.2 | 17.5 |  | Inhibitory activity on AR in reporter system (AR [1]): no inhibitory activities
11 | CC1(C)C(=O)N(c2ccc(C#N)c(C(F)(F)F)c2)C(=S)N1CCCCO [RU 59063, 4-[3-(4-hydroxybutyl)-4,4-dimethyl-5-oxo-2-thioxoimidazolidin-1-yl]-2-trifluoromethylbenzonitrile, reference compound] | No(*) | No | strongly activated AR | 11 | 20.8 | 34.6 | stimulated PSA expression | 6.88 | 11.5 | 21.5 |  | 
12 | CC1(C)C(=O)N(c2ccc(C#N)c(C(F)(F)F)c2)C(=S)N1c1ccc(C(F)(F)F)cc1 [RD66, 4-(4,4-dimethyl-5-oxo-2-thioxo-3-(4-trifluoromethylphenyl)imidazolidin-1-yl)-2-trifluoromethylbenzonitrile] |  |  |  |  |  |  |  |  |  |  | 0.143 | IC50 (AR [2]): 0.144 µM
13 | Cc1ccc(N2C(=S)N(c3ccc(C#N)c(C(F)(F)F)c3)C(=O)C2(C)CF)cc1 (stereo not shown) [RD68, 4-(4-fluoromethyl-4-methyl-5-oxo-2-thioxo-3-(4-methylphenyl)imidazolidin-1-yl)-2-trifluoromethylbenzonitrile] |  |  |  |  |  |  |  |  |  |  | 0.126 | IC50 (AR [2]): 0.129 µM
14 | CN1C(=O)N(c2ccc(C#N)c(C(F)(F)F)c2)C(=O)C12CCC2 [RD74, 4-(5-methyl-6,8-dioxo-5,7-diazaspiro[3.4]oct-7-yl)-2-trifluoromethylbenzonitrile, reference compound] | No | No | strongly activated AR | 11.4 | 14.3 | 30.6 | stimulated PSA expression | 7.5 | 15.2 | 23.8 |  | Inhibitory activity on AR in reporter system (AR [1]): no inhibitory activities
15 | Cc1ccc(N2C(=S)N(c3ccc(C#N)c(Cl)c3)C(=O)C2(C)C)cc1 [RD72] |  |  |  |  |  |  |  |  |  |  |  | Activity (words, overall) [5]: very poor activity
16 | CCNC(=S)N=C1N(c2ccc(C#N)c(C(F)(F)F)c2)C(=S)N(c2ccc(C)cc2)C1(C)C [RD91, 1-[3-(4-cyano-3-trifluoromethyl-phenyl)-5,5-dimethyl-2-thioxo-1-p-tolyl-imidazolidin-4-ylidene]-3-ethyl-thiourea] |  |  | no agonistic activity | 1.3 | 1.18 | 1.28 | no agonistic activities | 1.06 | 1.3 | 0.85 |  | 
17 | CNC(=O)CCc1ccc(N2C(=S)N(c3ccc(C#N)c(C(F)(F)F)c3)C(=O)C23CCC3)cc1 [RD134, 3-{4-[7-(4-Cyano-3-trifluoromethylphenyl)-8-oxo-6-thioxo-5,7-diaza-spiro[3.4]oct-5-yl]-phenyl}-N-methyl-propionamide] |  |  |  |  |  |  |  |  |  |  | 0.234 | Rank order, most active to least active, relative PSA level (FIG. 4) (AR [2]): RD138>RD131>RD37>RD133>RD134>RD137>RD138>RD135>bicalutamide; Decrease in PSA level of LNCaP-AR cells, comparison (FIG. 4) (AR [2]): greater decrease in PSA level of LNCaP-AR cells than RD135 and RD137
18 | N#Cc1ccc(N2C(=O)C3(CCC3)N(c3ccc(CCC(=O)NCCO)cc3)C2=S)cc1C(F)(F)F [RD135, 3-{4-[7-(4-cyano-3-trifluoromethylphenyl)-8-oxo-6-thioxo-5,7-diaza-spiro[3.4]oct-5-yl]-phenyl}-N-(2-hydroxyethyl)-propionamide] |  |  |  |  |  |  |  |  |  |  | 0.732 | Rank order, most active to least active, relative PSA level (FIG. 4) (AR [2]): RD138>RD131>RD37>RD133>RD134>RD137>RD138>RD135>bicalutamide; Decrease in PSA level of LNCaP-AR cells, comparison (FIG. 4) (AR [2]): greater decrease in PSA level than bicalutamide
19 | Cc1ccc(N2C(=S)N(c3ccc(C#N)c(C(F)(F)F)c3)C(=NC(=S)Nc3ccccc3)C23CCC3)cc1 [RD92, 1-[7-(4-cyano-3-trifluoromethyl-phenyl)-6-thioxo-5-p-tolyl-5,7-diaza-spiro[3.4]oct-8-ylidine]-3-phenyl-thiourea] |  |  | no agonistic activity | 1.19 | 1.41 | 1.17 | no agonistic activities | 1.31 | 1.05 | 0.9 |  | 
